Among the data in PubChem BioAssay AID602273 (Broad Institute, 2012) are growth rescue activity and AC40 values, retold here.

Active and inactive are the calls of the source. The rule behind the calls is not given here.

Test system in one test: not listed separately
As to the kind of experiment: rescue of alpha-synuclein yeast toxicity, dose response, S. cerevisiae, plate reader, cherry-pick (AID 602273). The conditions noted are these: S. cerevisiae alpha-synuclein toxicity rescue, OD600 growth, 24 h; at 26 µM (top of the series).
In the case of `C=CCN1C(=O)C(Cc2ccc(OCC)cc2)SC1=Nc1ccc(C(=O)O)cc1` (stereo not given), the growth rescue activity is 18.5% (inactive).
The same measure, in the same setting: the result for `CC(C)(C)c1cc(NC(=O)CCSc2nnc3ccccn23)cc(C(C)(C)C)c1` reads 3.55% (inactive); that for `CCCc1nc(SCC(=O)Nc2cc(C)on2)c2ccccc2n1`, 4.07% (inactive).

In another test the test system is S. cerevisiae alpha-synuclein toxicity rescue, OD600 growth, 24 h. The test is described as above.
Conditions: not given
Regarding `Clc1ccc(SCc2csc(N3CCOCC3)n2)cc1`, the AC40 was > 26 µM (inactive).
Still for that read-out and setting: the same measure for `O=[N+]([O-])c1cccc(-c2ncc3ccccn23)c1`: > 26 µM (inactive); for `O=c1c2sccc2nc(SCc2ccc([N+](=O)[O-])cc2)n1Cc1ccccn1`: > 26 µM (inactive).
Still for that read-out and setting: the same measure for `CSc1sc(C(=O)Nc2ccc(F)cc2F)c2c1C=CCC2`: > 26 µM (inactive).
Same read-out and setting: the result for `Fc1cc(NCc2ccccc2)nc(NCc2ccccc2)n1` reads > 26 µM (inactive); that for `COc1cccc(CNc2ccc(Br)cn2)c1O`, > 26 µM (inactive).
As to `CN1CCN(Cc2c(O)ccc3cc(Br)ccc23)CC1`, the AC40 is > 26 µM (inactive).
The same measure, in the same setting: the same measure for `O=C(CSc1nnc(-c2c[nH]c3ccccc23)o1)c1ccccc1`: > 26 µM (inactive).
Turning to `Cc1ccc2oc(C(=O)N3CCC(O)(c4cccc(C(F)(F)F)c4)CC3)c(C)c2c1`, the AC40 is > 26 µM (inactive).
Same read-out and setting: the same measure for `CCOC(=O)c1nnsc1Nc1ccc(C)c(C)c1`: > 26 µM (inactive); for `Cc1cc(-c2nc3ncccc3o2)ccc1NC(=S)NC(=O)C(C)C`: > 26 µM (inactive); for `CC(C)c1ccc(C2NC(=O)c3ccccc3O2)cc1` (stereo not given): 12.1 µM.
Still for that read-out and setting: the same measure for `O=C1C=C(c2ccccc2)CC(/C=C/c2ccccc2)C1` (stereo not given): > 12 µM (inactive).
With `COc1cccc(NC(=S)NC(=O)c2c(Cl)c(C)nn2C)c1`, the AC40 is > 26 µM (inactive).
The same measure, in the same setting: the result for `Cc1ccccc1CSc1nsc(N)n1` reads 14.5 µM.
Still for that read-out and setting: the result for `CC1(C)CC(=O)C=C(NC2=CC3OC(c4ccccc4)OCC3OC2=O)C1` (stereo not given) reads > 26 µM (inactive); that for `O=c1[nH]c2ccccc2c2cn(-c3ccccc3)nc12`, 23.4 µM.
